In one assay the target is T1, GABAB (B1/B2) (Homo sapiens, UniProt Q9UBS5).
T1 construct: host or cells: RBL cells
Briefly: functional assay, Ca2+-dependent fluorimetry in RBL cells. Format: cell-based. The settings on record: 100 μM. As to the method: Functional assays of all GABAA, NMDA (GluN2A-GluN2D) and AMPA (GluA2) receptor subunits were performed by SB Drug Discovery as a part of their CNS discovery panel using FLIPR technology. Briefly, receptor-expressing HEK 293 cell lines were incubated in a red membrane potential dye in HEPES:HBSS pH 7.4 buffer and the fluorescence (λex: 488, λex: 510-570) was monitored over time as the test compounds and/or reference compounds were added to the solution. In agonist assay, only test compounds were added. In positive allosteric modulator assay, cells were preincubated with test compounds and then low concentration (approximately EC20) of an appropriate agonist was added. In antagonist assay, cells were preincubated with test compounds and then high concentration (approximately EC80) of an appropriate agonist was added. For GABAA assays, GABA was used as the agonist, picrotoxin was used as the reference antagonist and allopregnanolone was used as the reference positive allosteric modulator (PAM). […] All compounds were tested at 7 concentration points in triplicate and EC50/IC50 was determined where applicable. […]
All receptor assays were performed exactly as described in Example 1. […] All compounds were tested at 7 concentrations in triplicate and EC50/IC50 was determined where applicable. […]

A further assay has as its system AMPA nonspecific. As to the kind of experiment: radioligand binding assay, cerebral cortex membranes, [3H]AMPA. The settings on record: AMPA nonspec, rat; 100 μM. On the procedure: (§1) Nonspecific AMPA, kainate and NMDA binding assays were performed by Eurofins Discovery (Cerep) using rat cerebral cortex membranes and radiolabeled [^3H]AMPA, [^3H]kainic acid and [^3H]CGP 39653, respectively. All compounds were tested at a single concentration of 100 uM in triplicate. mGluR1, mGluR2, mGluR5 and GABAB binding assays were performed by Eurofins Discovery. mGluR1 assay was performed using rat cerebellum membranes and radiolabeled [^3H]quisqalic acid. mGluR2 assay was performed using recombinant Chem-1 cells and [^3H]LY341495. mGluR5 and GABAB binding assays were performed using recombinant CHO-K1 cells and […], respectively. All compounds were tested at a single concentration of 100 uM in triplicate.
(§2) All receptor assays were performed exactly as described in Example 1. Functional assays of all GABAA, NMDA (GluN2A-GluN2D) and AMPA (GluA2) receptor subunits were performed by SB Drug Discovery as a part of their CNS discovery panel using FLIPR technology. All compounds were tested at 7 concentrations in triplicate and EC50/IC50 was determined where applicable. Functional GABAB assay was performed by Eurofins Discovery (Cerep) using Ca^2+-dependent fluorimetry in RBL cells expressing human GABAB (B1/B2) receptor. All compounds were tested at a single concentration of 100 uM in triplicate. […]

In the next assay the test system is GABAB nonsel. As to the kind of experiment: radioligand binding inhibition assay. Particulars: rat, 100 μM. As to the method: as §1
Another assay concerns the target T2, mGluR2 (Homo sapiens, UniProt Q14416).
T2 construct: host or cells: Chem-1 cells
Briefly: radioligand binding assay, recombinant Chem-1 cells. As to the method: as §1, §2

Assay [1] deals with mouse cerebral synaptosomes. As to the kind of experiment: Synaptosomal neurotransmitter uptake assay. Format: cell-based. Particulars: 10 μM substrate; for transport into synaptosomes: 37° C. On the procedure:
To each tube, 5 μL of a test compound solution (final concentration 10 μM) in Buffer KRP or Buffer KRP alone were added. Samples were incubated at 4° C. or 37° C. for 1, 10, or 30 min and then immediately centrifuged and washed twice by resuspension-centrifugation with Buffer S (0.5 mL). Resulting pellets were resuspended in 170 μL of 0.1% aqueous formic acid and mixed with 330 μL of ACN.
96-well plate experiments: 250 μL aliquots of the synaptosome suspension were transferred to two 0.8-mL 96 well plates, one on ice (0° C. samples only) and one in a thermoblock (37° C. samples only), and equilibrated for 10 min. 5 μL of a test compound (0.5 mM; final concentration: 10 μM) in Buffer KRP or Buffer KRP blank were added 10, 20 or 30 min before the incubation termination. “0 min” samples were prepared by placing the test compound solution in a separate pre-chilled V-shape bottom 2-mL 96 well plate; at the end of incubation 200 μL aliquots of all samples were transferred to the 2-mL 96 well plate and centrifuged (2,500 g for 15 min at 4° C.) immediately. The resulting pellets were rinsed with Buffer KRP, followed by centrifugation, twice, then resuspended in 200 μL of 60% ACN containing 2.5 μM Glu-d5 as internal standard and stored at −80° C. until analysis.
Synaptosome uptake and high potassium-induced release assays were performed as described in Example 1. Uptake assays used 250 μL aliquots of the synaptosome suspension transferred to a pre-chilled 0.8 mL 96 well plate. 5 μL of a test compound solution (0.5 mM; final concentration: 10 μM to compare directly to our previous work was added to each well and incubated at 0° C. or 37° C. After 10, 20 or 30 min, samples were chilled on ice and immediately sedimented (2,500 g for 15 min at 4° C.) and washed with Buffer S (0.5 mL, ×2). Resulting pellets were resuspended in 200 μL of 60% ACN containing 5 μM GABA-d6 and stored at −80° C. until analysis. Potassium-induced release assay used 500 μL aliquots of the synaptosome suspension transferred to pre-chilled microcentrifuge tubes. 2.5 μL of a test compound solution (20 mM; final concentration: 100 μM) in Buffer KRP was added to each tube and incubated for 15 min at 37° C., briefly chilled on ice, and then immediately sedimented (8,000 g for 4 min at 4° C.) and washed with Buffer KRP, followed by centrifugation, twice. The resulting pellets were resuspended in 500 μL of Buffer KRP or Buffer K-KRP and incubated for 5, 10 or 15 min at 37° C., sedimented (8,000 g for 4 min at 4° C.), and washed with Buffer KRP. Resulting pellets were resuspended in 400 μL of 60% ACN containing 2.5 μM GABA-d6 as internal standard and stored at −80° C. until analysis.

T2 sequence (Q14416 19-872): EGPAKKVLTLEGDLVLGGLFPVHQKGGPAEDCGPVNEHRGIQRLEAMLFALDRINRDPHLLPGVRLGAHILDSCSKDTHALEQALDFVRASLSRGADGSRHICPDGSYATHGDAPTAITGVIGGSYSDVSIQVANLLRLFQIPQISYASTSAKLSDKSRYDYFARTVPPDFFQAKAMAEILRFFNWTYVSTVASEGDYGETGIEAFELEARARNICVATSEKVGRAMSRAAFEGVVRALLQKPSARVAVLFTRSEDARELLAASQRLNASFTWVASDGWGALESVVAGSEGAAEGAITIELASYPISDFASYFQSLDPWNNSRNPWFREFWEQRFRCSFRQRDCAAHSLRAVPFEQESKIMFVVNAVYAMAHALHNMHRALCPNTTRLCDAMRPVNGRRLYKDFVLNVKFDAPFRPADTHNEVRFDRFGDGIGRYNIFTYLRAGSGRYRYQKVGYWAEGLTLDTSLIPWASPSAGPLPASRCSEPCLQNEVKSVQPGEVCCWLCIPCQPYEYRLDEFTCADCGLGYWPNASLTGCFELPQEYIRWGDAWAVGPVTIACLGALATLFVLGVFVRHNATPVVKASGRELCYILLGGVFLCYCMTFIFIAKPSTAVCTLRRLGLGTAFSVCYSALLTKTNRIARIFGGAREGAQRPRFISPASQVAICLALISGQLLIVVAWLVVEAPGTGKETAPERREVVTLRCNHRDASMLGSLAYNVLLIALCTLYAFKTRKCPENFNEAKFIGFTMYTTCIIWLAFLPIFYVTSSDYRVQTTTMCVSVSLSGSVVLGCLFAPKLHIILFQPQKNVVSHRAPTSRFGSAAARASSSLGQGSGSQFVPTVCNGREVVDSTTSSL
T1 sequence (Q9UBS5 20-961): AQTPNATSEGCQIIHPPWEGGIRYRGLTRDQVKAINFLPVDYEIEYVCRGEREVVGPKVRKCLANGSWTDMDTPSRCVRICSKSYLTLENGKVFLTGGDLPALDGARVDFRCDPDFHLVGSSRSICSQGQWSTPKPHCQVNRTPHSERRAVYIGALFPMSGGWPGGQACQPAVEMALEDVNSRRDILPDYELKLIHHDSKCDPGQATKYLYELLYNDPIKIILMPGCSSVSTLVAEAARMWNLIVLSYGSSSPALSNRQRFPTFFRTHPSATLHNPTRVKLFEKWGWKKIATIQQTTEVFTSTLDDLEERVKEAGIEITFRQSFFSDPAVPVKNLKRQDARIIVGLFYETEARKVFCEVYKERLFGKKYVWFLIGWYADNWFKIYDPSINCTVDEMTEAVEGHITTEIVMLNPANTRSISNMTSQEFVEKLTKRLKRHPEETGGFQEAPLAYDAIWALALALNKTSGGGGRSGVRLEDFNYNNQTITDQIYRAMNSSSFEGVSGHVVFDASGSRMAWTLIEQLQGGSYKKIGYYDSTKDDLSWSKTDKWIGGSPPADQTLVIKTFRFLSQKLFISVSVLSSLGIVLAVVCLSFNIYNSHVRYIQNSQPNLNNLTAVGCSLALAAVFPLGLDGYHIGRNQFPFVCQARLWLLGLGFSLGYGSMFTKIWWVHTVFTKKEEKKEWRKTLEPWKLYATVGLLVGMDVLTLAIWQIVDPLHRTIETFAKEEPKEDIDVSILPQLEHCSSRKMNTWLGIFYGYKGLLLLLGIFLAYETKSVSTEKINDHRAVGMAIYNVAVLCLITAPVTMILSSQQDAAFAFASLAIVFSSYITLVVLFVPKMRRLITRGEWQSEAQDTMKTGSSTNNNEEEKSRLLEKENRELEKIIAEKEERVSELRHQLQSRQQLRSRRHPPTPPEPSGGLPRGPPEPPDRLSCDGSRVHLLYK
T1 sequence (O75899 42-941 partner): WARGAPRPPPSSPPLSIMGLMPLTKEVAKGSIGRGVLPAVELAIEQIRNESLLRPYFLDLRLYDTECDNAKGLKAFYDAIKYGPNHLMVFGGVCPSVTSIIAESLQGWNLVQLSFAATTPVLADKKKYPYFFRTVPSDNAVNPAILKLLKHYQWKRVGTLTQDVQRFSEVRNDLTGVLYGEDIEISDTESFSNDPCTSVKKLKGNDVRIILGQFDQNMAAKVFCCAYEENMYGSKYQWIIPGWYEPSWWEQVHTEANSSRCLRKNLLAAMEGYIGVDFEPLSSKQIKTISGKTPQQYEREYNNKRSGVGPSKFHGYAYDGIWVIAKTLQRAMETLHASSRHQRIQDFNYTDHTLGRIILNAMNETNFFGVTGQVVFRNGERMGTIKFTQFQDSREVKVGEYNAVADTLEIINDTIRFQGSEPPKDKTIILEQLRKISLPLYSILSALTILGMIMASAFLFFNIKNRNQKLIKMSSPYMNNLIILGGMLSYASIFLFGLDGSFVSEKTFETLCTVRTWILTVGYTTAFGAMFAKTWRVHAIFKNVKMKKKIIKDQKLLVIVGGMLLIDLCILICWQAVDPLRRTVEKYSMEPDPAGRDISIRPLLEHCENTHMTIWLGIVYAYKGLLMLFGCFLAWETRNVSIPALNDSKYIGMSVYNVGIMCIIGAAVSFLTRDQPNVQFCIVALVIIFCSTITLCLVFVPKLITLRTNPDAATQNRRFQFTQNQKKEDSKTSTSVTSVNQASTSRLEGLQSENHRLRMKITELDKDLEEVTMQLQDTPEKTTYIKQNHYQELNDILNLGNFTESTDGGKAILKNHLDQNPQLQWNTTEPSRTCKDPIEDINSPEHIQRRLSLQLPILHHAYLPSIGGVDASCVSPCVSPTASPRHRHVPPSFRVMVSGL

As to `C[C@@](N)(CCC(=O)O)C(=O)O` [(R)-2MeGlu, (R)-2-methylglutamic acid], at GABAB (B1/B2), the “% of agonist response” value was found to be 0%. Besides, the “% of radioligand binding inhibition” value was determined as 15% with AMPA nonspecific and 5% in the assay with GABAB nonsel. Also, the inhibition at 100 µM on mGluR2 is -3%. Further, the transport into synaptosomes entry in assay [1] is reported as “transported into synaptosomes”.
Regarding `C[C@](N)(CCC(=O)O)C(=O)O` [(S)-2MeGlu, (S)-2-methylglutamic acid], the “% of agonist response” value on GABAB (B1/B2) is reported as 0%. Moreover, the entries for the “% of radioligand binding inhibition” value in the assay on AMPA nonspecific and with GABAB nonsel were 12% and 5%, respectively. In addition, at mGluR2, the inhibition at 100 µM is 25%. In addition, in assay [1], the transport into synaptosomes entry was “transported into synaptosomes”. The “synaptosomal uptake, faster than the R enantiomer” value in assay [1] (temperature-dependent uptake) is reported as “approximately 3 fold”.

As usually defined, the inhibition is the drop in the measured response relative to a control, in per cent.

These data come from patent publication US12589087B2, “Enantiomer selective action on neurotransmission” (The Board of Trustees of the Leland Stanford Junior …, priority 2021, dated 2026).
